Laboratory results: publication PMC6138237, “Machine intelligence decrypts β-lapachone as an allosteric 5-lipoxygenase inhibitor” (Chemical Science, 2018)
Where two headings read alike, the source gives them in different places.

Experiments:
TRPV1 [1] = biological target: T1, TRPV1 (Homo sapiens, UniProt Q8NER1); assay: TRPV1 functional agonist assay, Cerep (intracellular Ca2+); assay type: cell-based; conditions: TRPV1 (agonist), 150 µM
TRPV1 [2] = biological target: T1, TRPV1; assay: TRPV1 functional antagonist assay, Cerep (capsaicin 30 nM); assay type: cell-based
TRPM8 = biological target: T2, TRPM8 (Homo sapiens, UniProt Q7Z2W7); assay: TRPM8 functional antagonist assay, Cerep (icilin 100 nM); assay type: cell-based
T2 construct: Cerep, SA (fee-for-service assay) printed G018533 (citation number 33 glued on)

p38α = p38α (Homo sapiens, UniProt Q16539); assay: ExpresS Diversity Kinase Profile, Cerep (LANCE): p38α; assay type: biochemical; conditions: 150 µM
Sequence of p38α (Q16539 whole entry): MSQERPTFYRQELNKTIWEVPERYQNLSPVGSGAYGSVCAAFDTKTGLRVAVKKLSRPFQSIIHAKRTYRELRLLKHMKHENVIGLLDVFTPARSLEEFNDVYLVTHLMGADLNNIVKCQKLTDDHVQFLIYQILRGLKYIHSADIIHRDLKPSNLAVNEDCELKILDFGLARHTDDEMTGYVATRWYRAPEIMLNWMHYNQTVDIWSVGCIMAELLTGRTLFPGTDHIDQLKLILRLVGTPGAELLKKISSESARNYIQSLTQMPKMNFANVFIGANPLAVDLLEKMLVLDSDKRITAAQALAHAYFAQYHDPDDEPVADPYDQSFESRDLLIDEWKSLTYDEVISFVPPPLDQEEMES

CaMK2α = CaMK2α (Homo sapiens, UniProt Q9UQM7); assay: ExpresS Diversity Kinase Profile, Cerep (LANCE): CaMK2α; assay type: biochemical
Sequence of CaMK2α (Q9UQM7 whole entry): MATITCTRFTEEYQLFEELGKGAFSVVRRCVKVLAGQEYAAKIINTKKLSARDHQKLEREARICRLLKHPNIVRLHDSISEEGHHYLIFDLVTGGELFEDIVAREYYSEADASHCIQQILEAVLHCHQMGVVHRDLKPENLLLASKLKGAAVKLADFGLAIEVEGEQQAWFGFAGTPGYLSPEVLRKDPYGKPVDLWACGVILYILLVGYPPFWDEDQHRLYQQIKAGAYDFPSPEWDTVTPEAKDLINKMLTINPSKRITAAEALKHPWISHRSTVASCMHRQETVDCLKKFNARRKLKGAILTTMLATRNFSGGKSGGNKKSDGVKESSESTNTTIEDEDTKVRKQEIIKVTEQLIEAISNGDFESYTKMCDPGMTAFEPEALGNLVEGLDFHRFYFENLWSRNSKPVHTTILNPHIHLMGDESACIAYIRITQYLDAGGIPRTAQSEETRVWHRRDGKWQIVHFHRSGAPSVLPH

MAPKAPK2 = MAPKAPK2 (Homo sapiens, UniProt P49137); assay: ExpresS Diversity Kinase Profile, Cerep (LANCE): MAPKAPK2; assay type: biochemical
Sequence of MAPKAPK2 (P49137 whole entry): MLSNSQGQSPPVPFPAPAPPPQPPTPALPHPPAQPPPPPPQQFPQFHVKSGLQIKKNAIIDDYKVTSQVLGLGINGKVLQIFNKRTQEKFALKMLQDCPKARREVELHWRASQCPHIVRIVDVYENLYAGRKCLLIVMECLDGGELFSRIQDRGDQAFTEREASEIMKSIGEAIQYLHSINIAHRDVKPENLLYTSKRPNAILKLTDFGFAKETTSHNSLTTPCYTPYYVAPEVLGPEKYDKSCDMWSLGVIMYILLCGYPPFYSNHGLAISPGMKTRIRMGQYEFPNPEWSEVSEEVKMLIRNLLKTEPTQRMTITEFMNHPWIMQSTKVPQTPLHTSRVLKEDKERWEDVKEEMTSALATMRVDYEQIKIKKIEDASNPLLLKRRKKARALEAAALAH

MNK2 = MNK2 (Homo sapiens, UniProt Q9HBH9); assay: ExpresS Diversity Kinase Profile, Cerep (LANCE): MNK2; assay type: biochemical
Sequence of MNK2 (Q9HBH9 whole entry): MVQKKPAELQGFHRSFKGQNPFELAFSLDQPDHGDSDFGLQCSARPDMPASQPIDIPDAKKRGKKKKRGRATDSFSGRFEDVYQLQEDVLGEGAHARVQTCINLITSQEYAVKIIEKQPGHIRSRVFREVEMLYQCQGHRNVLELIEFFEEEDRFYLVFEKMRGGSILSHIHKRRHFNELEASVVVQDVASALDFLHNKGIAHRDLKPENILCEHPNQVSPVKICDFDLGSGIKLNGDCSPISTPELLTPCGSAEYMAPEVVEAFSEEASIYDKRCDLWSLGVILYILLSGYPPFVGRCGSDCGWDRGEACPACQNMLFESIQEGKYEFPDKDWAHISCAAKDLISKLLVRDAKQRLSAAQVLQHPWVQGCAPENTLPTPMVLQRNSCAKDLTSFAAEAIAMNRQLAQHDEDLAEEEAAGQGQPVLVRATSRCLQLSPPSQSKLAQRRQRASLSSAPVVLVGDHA

PAK4 = PAK4 (Homo sapiens, UniProt O96013); assay: ExpresS Diversity Kinase Profile, Cerep (LANCE): PAK4; assay type: biochemical
Sequence of PAK4 (O96013 whole entry): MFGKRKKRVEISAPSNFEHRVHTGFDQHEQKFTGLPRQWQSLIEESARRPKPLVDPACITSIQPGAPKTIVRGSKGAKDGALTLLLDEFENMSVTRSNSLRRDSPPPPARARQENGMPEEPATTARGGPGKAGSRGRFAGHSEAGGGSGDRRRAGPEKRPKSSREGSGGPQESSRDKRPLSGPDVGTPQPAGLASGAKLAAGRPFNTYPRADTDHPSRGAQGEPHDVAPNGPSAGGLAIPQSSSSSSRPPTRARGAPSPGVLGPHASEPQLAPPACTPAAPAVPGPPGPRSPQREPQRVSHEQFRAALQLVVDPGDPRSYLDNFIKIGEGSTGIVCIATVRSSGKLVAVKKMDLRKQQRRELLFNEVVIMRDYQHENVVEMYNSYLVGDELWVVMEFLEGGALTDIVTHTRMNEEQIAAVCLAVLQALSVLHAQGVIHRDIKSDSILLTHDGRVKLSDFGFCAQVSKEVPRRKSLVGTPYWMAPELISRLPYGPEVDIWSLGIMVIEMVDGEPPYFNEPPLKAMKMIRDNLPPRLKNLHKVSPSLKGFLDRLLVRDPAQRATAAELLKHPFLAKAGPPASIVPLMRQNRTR

12-LO = biological target: T3, 12-LO (Homo sapiens, UniProt P18054); assay: 12-LO inhibition in intact human neutrophils
T3 sequence (P18054 1-663): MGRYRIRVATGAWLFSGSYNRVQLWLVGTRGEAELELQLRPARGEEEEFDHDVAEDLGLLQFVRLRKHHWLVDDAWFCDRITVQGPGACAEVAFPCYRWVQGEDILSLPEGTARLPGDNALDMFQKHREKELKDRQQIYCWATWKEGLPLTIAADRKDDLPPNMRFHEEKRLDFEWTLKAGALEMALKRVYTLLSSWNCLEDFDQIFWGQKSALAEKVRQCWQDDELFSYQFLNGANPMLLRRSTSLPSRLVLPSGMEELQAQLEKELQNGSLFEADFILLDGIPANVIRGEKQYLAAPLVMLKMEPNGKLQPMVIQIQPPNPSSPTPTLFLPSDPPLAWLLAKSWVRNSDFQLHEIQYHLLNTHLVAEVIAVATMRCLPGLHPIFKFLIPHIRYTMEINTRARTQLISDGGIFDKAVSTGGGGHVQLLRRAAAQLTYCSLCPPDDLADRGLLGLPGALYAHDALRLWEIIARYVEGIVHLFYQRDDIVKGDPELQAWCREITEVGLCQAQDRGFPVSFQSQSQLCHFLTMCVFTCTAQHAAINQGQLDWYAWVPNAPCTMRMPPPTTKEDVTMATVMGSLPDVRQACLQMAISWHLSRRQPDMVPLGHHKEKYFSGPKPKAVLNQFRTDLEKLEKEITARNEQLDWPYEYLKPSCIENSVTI

EP2 = EP2 (Homo sapiens, UniProt P43116); assay: EP2 functional agonist assay, Cerep (cAMP, HTRF)
Sequence of EP2 (P43116 whole entry): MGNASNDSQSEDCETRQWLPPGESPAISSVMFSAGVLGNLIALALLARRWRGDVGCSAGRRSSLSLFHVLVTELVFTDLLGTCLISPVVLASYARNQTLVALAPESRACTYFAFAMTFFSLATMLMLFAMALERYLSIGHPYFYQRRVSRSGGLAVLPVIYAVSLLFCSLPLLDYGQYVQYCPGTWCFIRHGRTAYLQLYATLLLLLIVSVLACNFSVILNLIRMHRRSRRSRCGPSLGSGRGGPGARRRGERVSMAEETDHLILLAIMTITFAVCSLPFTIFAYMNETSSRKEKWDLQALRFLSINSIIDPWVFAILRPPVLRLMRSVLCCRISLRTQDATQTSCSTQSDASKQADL

EP4 = EP4 (Homo sapiens, UniProt P35408); assay: EP4 functional agonist assay, Cerep (cAMP, HTRF)
Sequence of EP4 (P35408 whole entry): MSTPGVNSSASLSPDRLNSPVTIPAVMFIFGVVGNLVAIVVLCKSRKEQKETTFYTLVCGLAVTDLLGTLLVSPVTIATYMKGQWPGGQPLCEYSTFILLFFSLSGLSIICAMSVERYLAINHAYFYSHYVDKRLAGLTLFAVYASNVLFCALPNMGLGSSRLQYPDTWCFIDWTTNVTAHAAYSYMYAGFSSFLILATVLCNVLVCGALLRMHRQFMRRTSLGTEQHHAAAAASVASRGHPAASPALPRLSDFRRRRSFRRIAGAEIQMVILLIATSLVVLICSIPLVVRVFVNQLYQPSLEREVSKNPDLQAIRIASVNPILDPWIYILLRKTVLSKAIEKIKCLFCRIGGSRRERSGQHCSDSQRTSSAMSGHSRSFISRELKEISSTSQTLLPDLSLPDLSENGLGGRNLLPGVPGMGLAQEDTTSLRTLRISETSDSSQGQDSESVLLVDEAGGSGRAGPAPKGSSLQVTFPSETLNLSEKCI

EP1 = biological target: T4, EP1 (Homo sapiens, UniProt P34995); assay: EP1 functional agonist assay, Cerep (intracellular Ca2+)
T4 sequence (P34995 1-402): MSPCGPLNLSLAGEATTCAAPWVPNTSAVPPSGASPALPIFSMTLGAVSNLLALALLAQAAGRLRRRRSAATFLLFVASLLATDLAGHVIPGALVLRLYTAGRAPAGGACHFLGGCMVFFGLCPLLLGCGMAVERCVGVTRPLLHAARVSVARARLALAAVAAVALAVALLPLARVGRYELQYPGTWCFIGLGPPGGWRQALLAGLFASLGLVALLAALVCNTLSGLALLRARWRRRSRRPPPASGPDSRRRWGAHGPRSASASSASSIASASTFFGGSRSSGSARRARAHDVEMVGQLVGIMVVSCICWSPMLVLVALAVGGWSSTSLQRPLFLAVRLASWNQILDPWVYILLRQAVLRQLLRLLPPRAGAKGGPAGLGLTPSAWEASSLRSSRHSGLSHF

[3] = read-out: % of control values, 1st measurement
[4] = read-out: % of control values, 2nd measurement
[5] = n = 2, read-out: % Inhibition of control values, Mean
[6] = read-out: % Inhibition of control values, 1st measurement
[7] = read-out: % Inhibition of control values, 2nd measurement
[8] = read-out: % of control values, Mean

T1 sequence (Q8NER1 whole entry): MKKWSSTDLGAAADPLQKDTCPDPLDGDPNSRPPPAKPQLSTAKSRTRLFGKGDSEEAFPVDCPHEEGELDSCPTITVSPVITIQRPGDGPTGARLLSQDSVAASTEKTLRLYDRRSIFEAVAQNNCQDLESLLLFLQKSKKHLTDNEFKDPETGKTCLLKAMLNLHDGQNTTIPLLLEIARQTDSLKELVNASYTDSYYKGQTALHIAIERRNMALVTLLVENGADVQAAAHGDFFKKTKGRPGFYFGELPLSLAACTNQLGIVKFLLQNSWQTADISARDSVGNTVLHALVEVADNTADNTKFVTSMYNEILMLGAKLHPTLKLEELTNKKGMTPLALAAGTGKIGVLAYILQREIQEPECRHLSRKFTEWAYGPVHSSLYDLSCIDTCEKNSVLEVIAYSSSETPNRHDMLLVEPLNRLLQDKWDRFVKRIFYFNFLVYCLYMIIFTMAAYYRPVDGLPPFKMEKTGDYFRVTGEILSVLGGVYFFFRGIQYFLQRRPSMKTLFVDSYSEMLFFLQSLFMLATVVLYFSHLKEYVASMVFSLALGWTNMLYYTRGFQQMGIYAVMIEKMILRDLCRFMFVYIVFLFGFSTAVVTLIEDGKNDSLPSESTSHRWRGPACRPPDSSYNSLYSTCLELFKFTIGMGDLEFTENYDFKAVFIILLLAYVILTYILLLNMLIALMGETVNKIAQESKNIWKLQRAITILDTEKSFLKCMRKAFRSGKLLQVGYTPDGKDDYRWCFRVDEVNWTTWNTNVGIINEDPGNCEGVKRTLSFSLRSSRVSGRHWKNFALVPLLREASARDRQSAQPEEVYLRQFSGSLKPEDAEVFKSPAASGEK

With `CC1(C)CCC2=C(O1)c1ccccc1C(=O)C2=O` [β-Lapachone] the remaining activity at 150 µM (TRPV1 [1]; n = 2, read-out: % of control values, Mean) was -4.6%, the remaining activity at 150 µM (TRPV1 [1]; [3]) was -7.3% and the remaining activity at 150 µM (TRPV1 [1]; [4]) was -1.9%. The IC50 (TRPV1 [2]) was roughly 100 µM, the IC50 (TRPM8) was greater than 100 µM and the inhibition at 150 µM (p38α; [5]) was 25.1%. The inhibition at 150 µM (p38α; [6]) was 27.1%, the inhibition at 150 µM (p38α; [7]) was 23.1% and the inhibition at 150 µM (CaMK2α; [5]) was 54.8%. For the same compound, the inhibition at 150 µM (CaMK2α; [6]) was 61.5%, the inhibition at 150 µM (CaMK2α; [7]) was 48% and the inhibition at 150 µM (MAPKAPK2; Flag: Interference, read-out: % Inhibition of control values, 1st measurement) was -14.5%. It also gave an inhibition at 150 µM (MAPKAPK2; Flag: Interference, read-out: % Inhibition of control values, 2nd measurement) of -2.7%, an inhibition at 150 µM (MAPKAPK2; n = 2, Flag: Interference, read-out: % Inhibition of control values, Mean) of -8.6% and an inhibition at 150 µM (MNK2; [5]) of 80.1%. The inhibition at 150 µM (MNK2; [6]) was 78.1%, the inhibition at 150 µM (MNK2; [7]) was 82.1% and the inhibition at 150 µM (PAK4; [5]) was -1.9%. For the same compound, the inhibition at 150 µM (PAK4; [6]) was -3.7%, the inhibition at 150 µM (PAK4; [7]) was 0% and the IC50 (12-LO) was greater than 30 µM. The remaining activity at 150 µM (EP2; [3]) was 12.3%, the remaining activity at 150 µM (EP2; [4]) was 14.8% and the remaining activity at 150 µM (EP2; [8]) was 13.5%. For the same compound, the IC50 (EP4) was roughly 100 µM, the remaining activity at 150 µM (EP4; [3]) was 54.6% and the remaining activity at 150 µM (EP4; [4]) was 51.7%. It also gave a remaining activity at 150 µM (EP4; [8]) of 53.1%, a remaining activity at 150 µM (EP1; [3]) of -11.9% and a remaining activity at 150 µM (EP1; [4]) of -11.9%. It also gave a remaining activity at 150 µM (EP1; [8]) of -11.9%.
